ChEMBL document CHEMBL5223078, “Proteases and Their Modulators in Cancer Therapy: Challenges and Opportunities” (J Med Chem, 2021)
Each block holds one molecule with its values, some of them ahead of it.

Legend:
[1] = target: von Hippel-Lindau disease tumor suppressor/GTPase KRas (Homo sapiens, UniProt P01116+P40337); test: Protac activity at VHL E3 ligase/KRAS G12 degradation in human MDA-MB-231 cells assessed as […] by western blot analysis; type: cell-based
[2] = target: Protein cereblon/Tyrosine-protein kinase BTK (Homo sapiens, UniProt Q06187+Q96SW2, C481S); test: Protac activity at CRBN (unknown origin)/BTK C481S mutant (unknown origin) assessed as BTK C481S mutant degradation; type: protein assay
20S proteasome = test: Inhibition of 20S proteasome (unknown origin); type: protein-complex assay, Homo sapiens
MDA-MB-231 [3] = test: Antitumor activity against human MDA-MB-231 cells xenografted in mouse model assessed as reduction in ERRalpha level in mouse heart at 100 mg/kg, ip administered 3 times a day relative to control; type: functional; parameters: scale not given: the % may be the effect or the level left
MDA-MB-231 [4] = test: Antitumor activity against human MDA-MB-231 cells xenografted in mouse model assessed as reduction in ERRalpha level in mouse kidney at 100 mg/kg, ip administered 3 times a day relative to control; type: functional; parameters: scale not given: the % may be the effect or the level left
MDA-MB-231 [5] = test: Antitumour activity against human MDA-MB-231 cells xenografted in mouse model assessed as reduction in ERRalpha level of tumor growth at 100 mg/kg, ip administered 3 times a day relative to control; type: functional; parameters: scale not given: the % may be the effect or the level left
SUM-159-PT [6] = test: Cytotoxicity against human SUM159PT cells assessed as cell growth inhibition measured after 72 hrs by MTS assay; type: functional, cell-based
SUM-159-PT [7] = test: Inhibition of colony formation in human SUM159PT assessed as complete inhibition of cell growth measured after 48 hrs by crystal violet staining based analysis; type: functional
[8] = Cytotoxicity against human TEX cells assessed as cell growth inhibition measured after 72 hrs by spectrophotometry; type: functional, cell-based
OCI-AML2 = test: Cytotoxicity against human OCI-AML2 cells assessed as cell growth inhibition measured after 72 hrs by spectrophotometry; type: functional, cell-based; conditions: OCI-AML2, 72 h
OCI-AML-3 = test: Cytotoxicity against human OCI-AML-3 cells assessed as cell growth inhibition measured after 72 hrs by spectrophotometry; type: functional, cell-based; conditions: OCI-AML-3, 72 h
HCT-116 = test: Antiproliferative activity against human HCT-116 cells assessed as reduction in cell viability at 200 nm measured after 72 hrs by MTS assay relative to control; type: functional

Sequence of von Hippel-Lindau disease tumor suppressor/GTPase KRas (P01116 whole entry): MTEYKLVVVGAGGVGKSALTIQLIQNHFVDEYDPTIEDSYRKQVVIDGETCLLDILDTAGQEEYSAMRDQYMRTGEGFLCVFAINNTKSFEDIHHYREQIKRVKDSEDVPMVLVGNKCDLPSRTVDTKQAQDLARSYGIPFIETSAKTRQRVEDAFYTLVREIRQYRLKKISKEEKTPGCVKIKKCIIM
Sequence of von Hippel-Lindau disease tumor suppressor/GTPase KRas (P40337 whole entry): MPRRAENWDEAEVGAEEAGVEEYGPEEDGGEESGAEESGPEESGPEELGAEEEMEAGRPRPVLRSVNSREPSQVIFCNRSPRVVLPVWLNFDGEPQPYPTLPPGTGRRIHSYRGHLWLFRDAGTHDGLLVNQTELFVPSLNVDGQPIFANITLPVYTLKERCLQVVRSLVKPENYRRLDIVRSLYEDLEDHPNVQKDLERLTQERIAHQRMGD
Sequence of Protein cereblon/Tyrosine-protein kinase BTK (Q06187 2-659 C481S limits assumed, stated change not applied): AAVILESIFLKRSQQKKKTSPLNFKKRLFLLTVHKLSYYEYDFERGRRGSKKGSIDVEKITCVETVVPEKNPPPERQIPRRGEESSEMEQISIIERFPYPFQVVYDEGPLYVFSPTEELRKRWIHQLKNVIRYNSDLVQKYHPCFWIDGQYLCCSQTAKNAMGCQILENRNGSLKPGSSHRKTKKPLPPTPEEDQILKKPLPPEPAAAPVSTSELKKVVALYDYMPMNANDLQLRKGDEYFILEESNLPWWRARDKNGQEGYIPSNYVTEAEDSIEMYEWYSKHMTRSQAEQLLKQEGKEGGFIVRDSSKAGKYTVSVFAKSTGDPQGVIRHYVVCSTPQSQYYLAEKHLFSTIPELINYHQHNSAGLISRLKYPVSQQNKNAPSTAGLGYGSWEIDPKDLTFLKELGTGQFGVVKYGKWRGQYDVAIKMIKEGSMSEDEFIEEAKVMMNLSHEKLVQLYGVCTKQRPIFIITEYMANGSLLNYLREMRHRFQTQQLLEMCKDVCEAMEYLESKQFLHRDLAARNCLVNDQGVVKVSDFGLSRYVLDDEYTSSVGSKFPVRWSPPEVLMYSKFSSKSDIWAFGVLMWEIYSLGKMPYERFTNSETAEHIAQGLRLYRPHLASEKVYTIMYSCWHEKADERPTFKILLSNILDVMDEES
Sequence of Protein cereblon/Tyrosine-protein kinase BTK (Q96SW2 whole entry, stated change not applied): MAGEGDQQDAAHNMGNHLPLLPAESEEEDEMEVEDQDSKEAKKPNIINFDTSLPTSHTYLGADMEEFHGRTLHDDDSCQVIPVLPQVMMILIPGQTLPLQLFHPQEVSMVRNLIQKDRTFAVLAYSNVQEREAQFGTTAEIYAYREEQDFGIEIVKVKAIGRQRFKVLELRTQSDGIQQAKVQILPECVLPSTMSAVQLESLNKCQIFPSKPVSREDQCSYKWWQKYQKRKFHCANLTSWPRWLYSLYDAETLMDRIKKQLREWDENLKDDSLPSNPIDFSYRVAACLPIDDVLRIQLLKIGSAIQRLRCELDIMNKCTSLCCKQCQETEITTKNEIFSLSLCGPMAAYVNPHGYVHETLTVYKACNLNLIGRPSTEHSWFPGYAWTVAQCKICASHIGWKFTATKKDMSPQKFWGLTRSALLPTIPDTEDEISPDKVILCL

Compound: C=C(F)C(=O)N1CCN(c2nc(OC[C@@H]3CCCN3CCCOCCC(=O)N[C@H](C(=O)N3C[C@H](O)C[C@H]3C(=O)NCc3ccc(-c4scnc4C)cc3)C(C)(C)C)nc3c2CCN(c2cccc4cccc(Cl)c24)C3)C[C@@H]1CC#N
DC50 [1]: 0.25 µM

Compound: Nc1ncnc2c1c(-c1ccc(Oc3ccccc3)cc1)nn2[C@@H]1CCCN(C(=O)c2cn(CCOCCOCCOCCCc3cccc4c3C(=O)N(C3CCC(=O)NC3=O)C4=O)nn2)C1 (stereo partly drawn)
DC50 [2]: 0.05 µM

IC50 (20S proteasome): 0.09 µM
Compound: CC[C@H]1C(=O)NC2([C@@H](O)[C@@H]3C=CCCC3)C(=O)O[C@@H]12 (stereo partly drawn)

Compound: COc1cc(/C=C2\SC(=O)N(CCOCCC(=O)N[C@@H](C(=O)N3C[C@H](O)C[C@H]3C(=O)NCc3ccc(-c4scnc4C)cc3)C(C)(C)C)C2=O)ccc1Oc1ccc(C#N)cc1C(F)(F)F
Activity (MDA-MB-231 [3]): 44%
Activity (MDA-MB-231 [4]): 44%
Activity (MDA-MB-231 [5]): 39%

Compound: Cn1c2c(c(=O)n(Cc3ccc(Cl)cc3)c1=O)CN(Cc1cccc(C#N)c1)CC2
IC50 (SUM-159-PT [6]): 0.014 µM
INH (SUM-159-PT [7]): 30 nM

Compound: Cc1cccc(CN2CCc3c(c(=O)n(Cc4ccc(C(F)(F)F)cc4)c(=O)n3CCCN)C2)c1
IC50 (SUM-159-PT [6]): 0.057 µM

Compound: N#Cc1cccc(CN2CCC3=C(C2)C(=O)N(Cc2ccc(C(F)(F)F)cc2)C2=NCCN23)c1
IC50 (SUM-159-PT [6]): 0.011 µM

Compound: O=C1C2=C(CCN(Cc3ccccc3)C2)N2CCN=C2N1Cc1ccc(C(F)(F)F)cc1
IC50 [8]: 0.071 µM
IC50 (OCI-AML2): 0.076 µM
IC50 (OCI-AML-3): 0.06 µM
IC50 (SUM-159-PT [6]): 0.077 µM
Activity (HCT-116): 10%

Compound: C#Cc1cccc(CN2CCC3=C(C2)C(=O)N(Cc2ccc(C)cc2)C2=NCCN23)c1
IC50 (SUM-159-PT [6]): 0.1 µM

IC50 (20S proteasome): 0.09 µM
Compound: CCCC[C@@H](C=O)NC(=O)[C@H](CC(C)C)NC(=O)[C@@H](CC(C)C)NC(=O)CC

Compound: N#Cc1cccc(CN2CCC3=C(C2)C(=O)N(Cc2ccc(Cl)cc2)C2=NCCN23)c1
IC50 (SUM-159-PT [6]): 0.0074 µM
